The source of these data is publication PMC7531004, “Discovery of gramicidin A analogues with altered activities by multidimensional screening of a one-bead-one-compound library” (Nature Communications, 2020).

SMILES strings stand for the structures. Where a SMILES comes first, the peptide text is derived from it. [ ]: non-standard residue; d: D form. The star is where a group is joined. NHCH2CH2OH = OCCN*; For = O=C*

In data set [1] the test system is P388 mouse leukemia cells. The note with it: 92 h. An outline of the steps: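 P388 cells at 1 × 10^4 cells/mL (final) were exposed to library peptides (stocks diluted 250-fold in RPMI1640/10% FBS) for 92 h at 37 °C, 5% CO2. Viable cells were counted by WST-1/1-methoxy PMS (4 h), absorbance 415 nm, and expressed as cell viability (%).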
Data set [2] deals with Streptococcus pyogenes SSI-9. The data set can be described thus: Antibacterial activity assay of bead-derived peptides (three concentrations). The format is cell-based. On the set-up: key: +++: inhibition by the 640-fold diluted peptide solution; ++: inhibition by the 160-fold diluted solution; +: inhibition by the 40-fold diluted solution; -: no inhibition. The note with it: S. pyogenes, bead-derived peptide solution, three concentrations. An outline of the steps:
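Undiluted, 4-fold and 16-fold DMSO-diluted peptide stocks; S. pyogenes SSI-9, 2 × 10^5 CFU, cation-adjusted MHB (50 mg/L Ca2+, 25 mg/L Mg2+) + 5% laked horse blood; 37 °C, 18 h; readout = cell pellet visible or not.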

A short description of data set [3]: H+/Na+ transport assay of bead-derived peptides (one-point).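 Note: relative to parent gramicidin A activity set to 1.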 It counts as biochemical. On the set-up: key: relative activity; mean of two control wells = 1.00. To be noted: bead-derived peptide solution, EYPC/EYPG LUVs. An outline of the steps:
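One-point screen: peptide + pyranine-loaded LUVs, 30 min RT with vortexing, 96-well. Read-out is fluorescence intensity scaled as 100 × (Ix – I0)/(Imax – I0). Imax from Triton X-100, I0 from untreated vesicles, and the mean of the two control wells is set to 1.00.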

Consider `CC(C)C[C@@H](NC(=O)[C@H](Cc1c[nH]c2ccccc12)NC(=O)[C@H](NC(=O)[C@H](Cc1c[nH]c2ccccc12)NC(=O)[C@@H](CC(C)C)NC(=O)[C@H](Cc1c[nH]c2ccccc12)NC(=O)[C@H](NC(=O)[C@@H](NC(=O)[C@H](NC(=O)[C@H](C)NC(=O)[C@H](NC(=O)[C@H](C)NC(=O)CNC(=O)[C@@H](NC=O)C(C)C)C(C)C)C(C)C)C(C)C)C(C)C)C(C)C)C(=O)N[C@@H](Cc1c[nH]c2ccccc12)C(=O)NCCO` [compound 2994] (For-VGA[dV]A[dV]V[dV]W[dL]W[dV]W[dL]W-NHCH2CH2OH), for which, in data set [1], the cell viability/% came to 6.3%. Moreover, the antibacterial activity entry in data set [2] is “++”. The “H+/Na+ transport activity normalized against the value of 1 (1.00)” value (from here on “H+/Na+ transport activity normalized”) in data set [3] is listed as 1.14.
For `CNC(=O)C[C@@H](NC(=O)[C@@H](NC(=O)[C@@H](CC(C)C)NC(=O)[C@H](C)NC(=O)[C@@H](CC(C)C)NC(=O)[C@H](C)NC(=O)CNC(=O)[C@@H](NC=O)C(C)C)C(C)C)C(=O)N[C@@H](Cc1c[nH]c2ccccc12)C(=O)N[C@H](CC(C)C)C(=O)N[C@@H](Cc1c[nH]c2ccccc12)C(=O)N[C@@H](C(=O)N[C@@H](Cc1c[nH]c2ccccc12)C(=O)N[C@H](CC(C)C)C(=O)N[C@@H](Cc1c[nH]c2ccccc12)C(=O)NCCO)C(C)C` [compound 1479] (For-VGA[dL]A[dL]V[dD](NHMe)W[dL]W[dV]W[dL]W-NHCH2CH2OH), in that order: 100.0%, “-” and 1.19.
`CNC(=O)C[C@@H](NC(=O)[C@H](Cc1c[nH]c2ccccc12)NC(=O)[C@H](NC(=O)[C@H](Cc1c[nH]c2ccccc12)NC(=O)[C@H](NC(=O)[C@H](Cc1c[nH]c2ccccc12)NC(=O)[C@@H](CC(C)C)NC(=O)[C@@H](NC(=O)[C@H](NC(=O)[C@H](C)NC(=O)[C@@H](CC(C)C)NC(=O)[C@H](C)NC(=O)CNC(=O)[C@@H](NC=O)C(C)C)C(C)C)C(C)C)C(C)C)C(C)C)C(=O)N[C@@H](Cc1c[nH]c2ccccc12)C(=O)NCCO` [compound 6520] (For-VGA[dL]A[dV]V[dL]W[dV]W[dV]W[dD](NHMe)W-NHCH2CH2OH): the cell viability/% in data set [1] was 100.0%. Further, the antibacterial activity result in data set [2] is “-”. Further, the “H+/Na+ transport activity normalized” value in data set [3] came to 1.08.
For `CNC(=O)C[C@@H](NC(=O)[C@H](Cc1c[nH]c2ccccc12)NC(=O)[C@H](NC(=O)[C@H](Cc1c[nH]c2ccccc12)NC(=O)[C@H](NC(=O)[C@H](Cc1c[nH]c2ccccc12)NC(=O)[C@@H](CC(C)C)NC(=O)[C@@H](NC(=O)[C@H](NC(=O)[C@H](C)NC(=O)[C@@H](CC(C)C)NC(=O)[C@H](C)NC(=O)CNC(=O)[C@@H](NC=O)C(C)C)C(C)C)C(C)C)C(C)C)C(C)C)C(=O)N[C@@H](Cc1c[nH]c2ccccc12)C(=O)NCCO` [compound 6808] (For-VGA[dL]A[dV]V[dL]W[dV]W[dV]W[dD](NHMe)W-NHCH2CH2OH), in that order: 100.0%, “-” and 1.02.
The compound `CC(C)C[C@@H](NC(=O)[C@H](Cc1c[nH]c2ccccc12)NC(=O)[C@@H](CC(C)C)NC(=O)[C@H](Cc1c[nH]c2ccccc12)NC(=O)[C@H](NC(=O)[C@H](Cc1c[nH]c2ccccc12)NC(=O)[C@@H](CC(C)C)NC(=O)[C@@H](NC(=O)[C@H](NC(=O)[C@H](C)NC(=O)[C@H](NC(=O)[C@H](C)NC(=O)CNC(=O)[C@@H](NC=O)C(C)C)C(C)C)C(C)C)C(C)C)C(C)C)C(=O)N[C@@H](Cc1c[nH]c2ccccc12)C(=O)NCCO` [compound 8999] (For-VGA[dV]A[dV]V[dL]W[dV]W[dL]W[dL]W-NHCH2CH2OH) returned a cell viability/% in data set [1] of 96.1%. Moreover, in data set [2], the antibacterial activity result is given as “+”. The “H+/Na+ transport activity normalized” value in data set [3] worked out at 1.03.
The compound `CC(C)C[C@@H](NC(=O)[C@H](C)NC(=O)CNC(=O)[C@@H](NC=O)C(C)C)C(=O)N[C@@H](C)C(=O)N[C@H](CC(C)C)C(=O)N[C@H](C(=O)N[C@@H](C(=O)N[C@@H](Cc1c[nH]c2ccccc12)C(=O)N[C@@H](C(=O)N[C@@H](Cc1c[nH]c2ccccc12)C(=O)N[C@@H](C(=O)N[C@@H](Cc1c[nH]c2ccccc12)C(=O)N[C@@H](C(=O)N[C@@H](Cc1c[nH]c2ccccc12)C(=O)NCCO)[C@H](C)O)C(C)C)C(C)C)C(C)C)C(C)C` [compound 9735] (For-VGA[dL]A[dL]V[dV]W[dV]W[dV]W[dT]W-NHCH2CH2OH) yielded a cell viability/% in data set [1] of 100.0%. For the same compound, the antibacterial activity result in data set [2] is reported as “-”. The “H+/Na+ transport activity normalized” value in data set [3] is 1.18.
In data set [1], `CNC(=O)C[C@@H](NC(=O)[C@@H](NC(=O)[C@@H](CC(C)C)NC(=O)[C@H](C)NC(=O)[C@@H](CC(C)C)NC(=O)[C@H](C)NC(=O)CNC(=O)[C@@H](NC=O)C(C)C)C(C)C)C(=O)N[C@@H](Cc1c[nH]c2ccccc12)C(=O)N[C@H](CC(C)C)C(=O)N[C@@H](Cc1c[nH]c2ccccc12)C(=O)N[C@H](CC(C)C)C(=O)N[C@@H](Cc1c[nH]c2ccccc12)C(=O)N[C@@H](C(=O)N[C@@H](Cc1c[nH]c2ccccc12)C(=O)NCCO)[C@H](C)O` [compound 8992] (For-VGA[dL]A[dL]V[dD](NHMe)W[dL]W[dL]W[dT]W-NHCH2CH2OH) gave a cell viability/% of 56.1%. Moreover, the antibacterial activity entry in data set [2] was “-”. Also, in data set [3], the “H+/Na+ transport activity normalized” value was 1.07.
With `CC(C)C[C@@H](NC(=O)[C@H](C)NC(=O)CNC(=O)[C@@H](NC=O)C(C)C)C(=O)N[C@@H](C)C(=O)N[C@@H](C(=O)N[C@H](C(=O)N[C@@H](C(=O)N[C@@H](Cc1c[nH]c2ccccc12)C(=O)N[C@H](CC(C)C)C(=O)N[C@@H](Cc1c[nH]c2ccccc12)C(=O)N[C@H](CC(C)C)C(=O)N[C@@H](Cc1c[nH]c2ccccc12)C(=O)N[C@H](CC(C)C)C(=O)N[C@@H](Cc1c[nH]c2ccccc12)C(=O)NCCO)C(C)C)C(C)C)C(C)C` [compound 12972] (For-VGA[dL]A[dV]V[dV]W[dL]W[dL]W[dL]W-NHCH2CH2OH), the cell viability/% in data set [1] was found to be 0.0%. The antibacterial activity entry in data set [2] was “++”. Further, the “H+/Na+ transport activity normalized” value in data set [3] is given as 1.33.
With `CNC(=O)C[C@@H](NC(=O)[C@H](Cc1c[nH]c2ccccc12)NC(=O)[C@@H](CC(C)C)NC(=O)[C@H](Cc1c[nH]c2ccccc12)NC(=O)[C@@H](CC(C)C)NC(=O)[C@H](Cc1c[nH]c2ccccc12)NC(=O)[C@H](NC(=O)[C@@H](NC(=O)[C@@H](CC(C)C)NC(=O)[C@H](C)NC(=O)[C@@H](CC(C)C)NC(=O)[C@H](C)NC(=O)CNC(=O)[C@@H](NC=O)C(C)C)C(C)C)C(C)C)C(=O)N[C@@H](Cc1c[nH]c2ccccc12)C(=O)NCCO` [compound 11401] (For-VGA[dL]A[dL]V[dV]W[dL]W[dL]W[dD](NHMe)W-NHCH2CH2OH), in data set [1], the cell viability/% is 56.6%. Also, the antibacterial activity result in data set [2] was “-”. In addition, the “H+/Na+ transport activity normalized” value in data set [3] worked out at 1.09.
`CNC(=O)C[C@@H](NC(=O)[C@H](Cc1c[nH]c2ccccc12)NC(=O)[C@@H](CC(C)C)NC(=O)[C@H](Cc1c[nH]c2ccccc12)NC(=O)[C@@H](CC(C)C)NC(=O)[C@H](Cc1c[nH]c2ccccc12)NC(=O)[C@H](NC(=O)[C@@H](NC(=O)[C@H](NC(=O)[C@H](C)NC(=O)[C@@H](CC(C)C)NC(=O)[C@H](C)NC(=O)CNC(=O)[C@@H](NC=O)C(C)C)C(C)C)C(C)C)C(C)C)C(=O)N[C@@H](Cc1c[nH]c2ccccc12)C(=O)NCCO` [compound 11422] (For-VGA[dL]A[dV]V[dV]W[dL]W[dL]W[dD](NHMe)W-NHCH2CH2OH): the cell viability/% in data set [1] turned out to be 47.4%. Further, the antibacterial activity entry in data set [2] is reported as “+”. For the same compound, the “H+/Na+ transport activity normalized” value in data set [3] came to 1.04.
Take `CC(C)C[C@@H](NC(=O)[C@H](Cc1c[nH]c2ccccc12)NC(=O)[C@@H](CC(C)C)NC(=O)[C@H](Cc1c[nH]c2ccccc12)NC(=O)[C@@H](CC(C)C)NC(=O)[C@H](Cc1c[nH]c2ccccc12)NC(=O)[C@H](NC(=O)[C@@H](NC(=O)[C@H](NC(=O)[C@H](C)NC(=O)[C@H](NC(=O)[C@H](C)NC(=O)CNC(=O)[C@@H](NC=O)C(C)C)C(C)C)C(C)C)C(C)C)C(C)C)C(=O)N[C@@H](Cc1c[nH]c2ccccc12)C(=O)NCCO` [compound 3311] (For-VGA[dV]A[dV]V[dV]W[dL]W[dL]W[dL]W-NHCH2CH2OH): the cell viability/% in data set [1] worked out at 3.3%. Moreover, the antibacterial activity entry in data set [2] is on record as “++”. Besides, the “H+/Na+ transport activity normalized” value in data set [3] was found to be 1.14.
Turning to `CC(C)C[C@@H](NC(=O)[C@H](C)NC(=O)CNC(=O)[C@@H](NC=O)C(C)C)C(=O)N[C@@H](C)C(=O)N[C@H](CC(C)C)C(=O)N[C@H](C(=O)N[C@H](CC(C)C)C(=O)N[C@@H](Cc1c[nH]c2ccccc12)C(=O)N[C@H](CC(C)C)C(=O)N[C@@H](Cc1c[nH]c2ccccc12)C(=O)N[C@H](CC(C)C)C(=O)N[C@@H](Cc1c[nH]c2ccccc12)C(=O)N[C@@H](C(=O)N[C@@H](Cc1c[nH]c2ccccc12)C(=O)NCCO)C(C)C)C(C)C` [compound 2205] (For-VGA[dL]A[dL]V[dL]W[dL]W[dL]W[dV]W-NHCH2CH2OH), the cell viability/% in data set [1] is 0.0%. Besides, the antibacterial activity result in data set [2] is given as “-”. In addition, in data set [3], the “H+/Na+ transport activity normalized” value worked out at 1.01.
